# Patent US20240131028A1, “CHEMOVACCINATION AGAINST PLASMODIUM INFECTION WITH SELECTIVE PLASMEPSIN X INHIBITORS” (Merck Sharp & Dohme LLC, priority 2021, published 2024)
# System: ring stage parasites (Pf)
# Assay: Parasite lactate dehydrogenase (LDH) growth assay (Parasite Assay, PfLDH Assay)
# Type: cell-based, P. falciparum
# Conditions: Plasmodium falciparum, 72 h, Table 3; 72 hours growth, LDH readout; read-out: EC50
# Description: The parasite stock was maintained at 4% haematocrit in RPMI-Hepes media buffered with sodium bicarbonate and supplemented with 5% heat inactivated human serum and 0.5% albumax. […] On the day of assay set up, a blood smear of the parasite culture was Giemsa stained and counted. The parasitemia was adjusted to 0.7% rings and the haematocrit was diluted to 2% in RPMI-Hepes media buffered with sodium bicarbonate and supplemented with 5% heat inactivated human serum and 0.5% albumax. 30 μl of diluted parasites are then added into 10 μl of media+compound in pre-prepared Greiner TC assay plates. Parasite assay plates were placed in gassed humidified boxes in single layer and allowed to incubate at 37° C. for 72 hours. After 72 hours growth, assay plates were sealed with parafilm and frozen flat, in single file at −80° C. overnight. On the following day, assay plates were allowed to thaw at room temperature for 4 hours to which an LDH assay was performed to measure parasite growth.
row,Compound,EC50
1,COCC[C@H]([C@H]1C[C@@H]1C(=O)N[C@@H]1CC(C)(C)Oc2cc(OC)ccc21)N1C(=N)NC(C)(C)CC1=O [Example 70A],0.077 µM
2,COCC[C@H]([C@H]1C[C@@H]1C(=O)N[C@H]1CC(C)(C)Oc2c(C(F)(F)F)ccc(F)c21)N1C(=N)NC(C)(C)CC1=O [Example 114B],0.0051 µM
3,CC1(C)CC(=O)N(C[C@H]2C[C@@H]2C(=O)N[C@H]2CC(C)(C)Oc3ccc(Cl)cc32)C(=N)N1 [Example 95],0.11 µM
4,CCC1(CC)CC(=O)N([C@H](c2cccnc2)[C@H]2C[C@@H]2C(=O)N[C@H]2c3ccccc3OC(C)(C)[C@H]2O)C(=N)N1 [Example 11B],0.024 µM
5,COCC[C@H]([C@H]1C[C@@H]1C(=O)N[C@H]1CC(C)(C)Oc2cccc(Cl)c21)N1C(=N)NC(C)(C)CC1=O [Example 116A],0.0008 µM
6,COCC[C@H]([C@H]1C[C@@H]1C(=O)NC1CC(C)(C)Oc2c(F)cccc21)N1C(=N)NC(C)(C)CC1=O (stereo partly shown) [Example 111A],0.024 µM
7,COCC[C@H]([C@H]1C[C@@H]1C(=O)NC1CC(C)(C)Oc2ccc(OC(F)(F)F)cc21)N1C(=N)NC(C)(C)CC1=O (stereo partly shown) [Example 126A],0.0047 µM
8,CCC1(CC)CC(=O)N(C[C@H]2C[C@@H]2C(=O)N[C@@H]2CCOc3ccccc32)C(=N)N1 [Example 4B],0.026 µM
9,COCC[C@H]([C@H]1C[C@@H]1C(=O)N[C@H]1CC(C)(C)Oc2cc(Cl)ccc21)N1C(=N)NC(C)(C)CC1=O [Example 89A],0.0056 µM
10,CC1(C)CC(=O)N(C(c2cccnc2)[C@@H]2[C@@H](C(=O)N[C@H]3CC(C)(C)Oc4ccccc43)C2(C)C)C(=N)N1 (stereo partly shown) [Example 49A],0.02 µM
11,CCC1(CC)CC(=O)N([C@H](c2cccnc2)[C@H]2C[C@@H]2C(=O)N[C@H]2C[C@@H](C(F)(F)F)Oc3ccccc32)C(=N)N1 [Example 12],0.0009 µM
12,CCC1(CC)CC(=O)N([C@H](c2cccnc2)[C@H]2C[C@@H]2C(=O)N[C@@H]2c3ccccc3C[C@@H]2O)C(=N)N1 [Example 10],0.027 µM
13,COCC[C@H]([C@H]1C[C@@H]1C(=O)N[C@@H]1CC(C)(C)Oc2ccc(F)cc21)N1C(=N)NC(C)(C)CC1=O [Example 72A],0.011 µM
14,CCC1(CC)CC(=O)N([C@H](c2cccnc2)[C@H]2C(C)[C@@H]2C(=O)N[C@H]2CC(C)(C)Oc3ccccc32)C(=N)N1 (stereo partly shown) [Example 56B],0.0007 µM

# Same assay, conditions: Plasmodium falciparum, 72 h, Table 4; 72 hours growth, LDH readout; read-out: EC50 (Table 4)
row,Compound,EC50
1,CCC1(CC)CC(=O)N([C@H](CCOC)[C@H]2C[C@@H]2C(=O)N[C@@H]2c3ccccc3OC(C)(C)[C@H]2O)C(=N)N1 [Example 145],0.0084 µM

# Same assay, conditions: Table 3; 72 hours growth, LDH readout; read-out: EC50
row,Compound,EC50
1,"CC[C@]1(C)CC(=O)N(C(c2cncc(F)c2)[C@H]2C[C@@H]2C(=O)NC2c3ccccc3OC(C(F)(F)F)C2O)C(=N)N1 (single isomer, unassigned) [Example 104B]",0.022 µM
2,"CCC1(C)CC(NC(=O)[C@H]2C[C@@H]2[C@@H](c2cccnc2)N2C(=N)NC(C)(C)CC2=O)c2ccccc2O1 (single isomer, unassigned) [Example 105A]",0.0009 µM
3,"COCC[C@H]([C@H]1C[C@@H]1C(=O)NC1CC(C)(C(C)C)Oc2ccccc21)N1C(=N)NC(C)(C)CC1=O (single isomer, unassigned) [Example 80C]",0.014 µM
4,"CCC1(CC)CC(=O)N(CC2C(C(=O)N[C@H]3C[C@@H](C(F)(F)F)Oc4ccccc43)C2(F)F)C(=N)N1 (single isomer, unassigned) [Example 17B]",0.02 µM
5,CC1C[C@H](NC(=O)[C@H]2C[C@@H]2CN2C(=N)NC(C)(C)CC2=O)c2cc(F)ccc2O1 (stereo partly shown) [Example 139B],0.13 µM
6,COCC[C@H]([C@H]1C[C@@H]1C(=O)NC1CC2(CCC2)Oc2ccccc21)N1C(=N)NC(C)(C)CC1=O (stereo partly shown) [Example 131B],0.0061 µM

# Same assay, conditions: Table 4; 72 hours growth, LDH readout; read-out: EC50 (Table 4)
row,Compound,EC50
1,"CCC1(CC)CC(=O)N(C(CC(C)OC)[C@H]2C[C@@H]2C(=O)N[C@H]2CC(C)(C)Oc3ccccc32)C(=N)N1 (single isomer, unassigned) [Example 142B]",0.0007 µM
